ChEMBL document CHEMBL1149376, “Sulfamoyl-4-oxoquinoline-3-carboxamides: novel potentiators of defective DeltaF508-cystic fibrosis transmembrane conductance regulator chloride channel gating” (Bioorg Med Chem Lett, 2006)

Target: Cystic fibrosis transmembrane conductance regulator (Homo sapiens) (UniProt P13569)
Assay: Potentiation of deltaF508 mutated CFTR dependent iodide influx at 0.1 uM
Type: functional

Sequence of Cystic fibrosis transmembrane conductance regulator (Homo sapiens) (P13569 whole entry, looked up): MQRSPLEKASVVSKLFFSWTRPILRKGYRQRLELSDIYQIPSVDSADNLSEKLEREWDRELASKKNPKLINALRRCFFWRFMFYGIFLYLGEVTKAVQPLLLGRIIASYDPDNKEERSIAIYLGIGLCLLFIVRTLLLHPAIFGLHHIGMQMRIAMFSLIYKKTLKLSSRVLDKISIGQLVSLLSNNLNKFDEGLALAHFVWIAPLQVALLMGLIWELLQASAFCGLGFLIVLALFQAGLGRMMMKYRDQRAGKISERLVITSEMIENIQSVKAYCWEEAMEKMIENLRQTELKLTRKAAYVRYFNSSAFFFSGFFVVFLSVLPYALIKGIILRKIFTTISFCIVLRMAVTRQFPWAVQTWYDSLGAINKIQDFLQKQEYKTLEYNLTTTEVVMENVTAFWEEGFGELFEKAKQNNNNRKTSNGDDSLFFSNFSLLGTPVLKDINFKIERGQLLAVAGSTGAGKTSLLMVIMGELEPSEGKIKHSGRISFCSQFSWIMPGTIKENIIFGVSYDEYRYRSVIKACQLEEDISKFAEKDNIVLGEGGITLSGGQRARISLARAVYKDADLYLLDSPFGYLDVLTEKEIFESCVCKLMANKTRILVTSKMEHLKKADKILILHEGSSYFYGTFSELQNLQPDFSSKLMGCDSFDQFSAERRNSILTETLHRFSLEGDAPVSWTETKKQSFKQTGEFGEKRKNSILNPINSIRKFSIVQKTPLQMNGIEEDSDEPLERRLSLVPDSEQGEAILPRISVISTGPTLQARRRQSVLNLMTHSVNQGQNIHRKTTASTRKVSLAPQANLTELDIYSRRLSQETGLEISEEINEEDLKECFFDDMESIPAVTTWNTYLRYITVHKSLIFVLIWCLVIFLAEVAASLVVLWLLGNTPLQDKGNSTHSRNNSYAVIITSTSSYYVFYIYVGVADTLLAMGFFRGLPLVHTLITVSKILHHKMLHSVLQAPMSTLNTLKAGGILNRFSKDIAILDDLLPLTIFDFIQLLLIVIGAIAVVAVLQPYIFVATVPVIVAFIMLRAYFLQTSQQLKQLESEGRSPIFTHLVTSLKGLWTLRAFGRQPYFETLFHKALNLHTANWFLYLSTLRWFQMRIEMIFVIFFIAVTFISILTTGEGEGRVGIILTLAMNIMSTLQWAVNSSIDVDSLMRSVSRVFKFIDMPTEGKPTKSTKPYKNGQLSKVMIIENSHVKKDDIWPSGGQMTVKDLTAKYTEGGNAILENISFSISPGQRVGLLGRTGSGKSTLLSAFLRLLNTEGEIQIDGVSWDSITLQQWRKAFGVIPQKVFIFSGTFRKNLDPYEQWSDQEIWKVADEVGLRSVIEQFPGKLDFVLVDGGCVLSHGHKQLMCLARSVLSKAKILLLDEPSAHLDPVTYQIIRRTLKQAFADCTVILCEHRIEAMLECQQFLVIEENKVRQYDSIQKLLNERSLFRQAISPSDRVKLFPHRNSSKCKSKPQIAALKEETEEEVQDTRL

## CCN(c1ccccc1)S(=O)(=O)c1ccc2ncc(C(=O)NCc3ccccc3OC)c(O)c2c1
  Activity: 50%
